US12478594B2, “Methods of treatment of kidney injury associated with infection or trauma” (University of Pittsburgh—Of the Commonwealth System of …, priority 2019, dated 2025)

Columns and labels:
[1] = system: hemin treated kidney organoids; assay: Hemin-induced injury of kidney organoids: collagen hybridizing peptide (CHP) staining; type: cell-based, human; conditions: 25 μM hemin two days, then 10 days with 1 μM, 3 μM, and 9 μM compound
Description: A simple bioreactor-based method for growing renal organoids for long periods of time is provided, resulting in tissue with a high degree of maturation. Hemin-induced acute kidney injury produced by the oxidation of the heme of hemoglobin and myoglobin, causing oxidative stress and inflammation. […] These observations indicate that the kidney organoid model of AKI provides a valuable new platform to validate novel compounds in the setting of human AKI.
Organoids were prepared essentially as described in Przepiorski A, Sander V, Tran T, Hollywood J A, Sorrenson B, Shih J H, Wolvetang E J, McMahon A P, Holm™ and Davidson A J. A Simple Bioreactor-Based Method to Generate Kidney Organoids from Pluripotent Stem Cells. Stem Cell Reports. 2018; 11:470-484. As shown in FIG. 8 (A), induced pluripotent stem cells (iPSCs) were cultured for three 3 days in with 8 μM of the Wnt agonist CHIR-99021 (CHIR, e.g., 6-[[2-[[4-(2,4-dichlorophenyl)-5-(5-methyl-1H-imidazol-2-yl)-2-pyrimidinyl]amino]ethyl] amino]-3-pyridinecarbonitrile) in BPEL (BSA poly(vinyl alcohol) essential lipids)), and were then cultured for an additional 11 days in DMEM with Knockout™ Serum Replacement (KOSR). At 14 days, DMEM F12 medium containing 25 μM Hemin (Sigma, H9039) is applied for two days, followed by 10 days with 1 μM, 3 μM, and 9 μM UPHD186 in DMEM with 10% KOSR. UPHD25 was evaluated in the same manner. […]

[2] = CLP sepsis-associated AKI model: circulating creatinine; type: in vivo, Balb/c mice; conditions: early and delayed treatment regimens
Excerpt: (§1) Balb/c mice (20-24 weeks old, male and female, Charles River Labs) were used. Mice were subjected to cecal ligation and puncture surgery (CLP) in accordance with methods reported by Rittirsch et al. (Rittirsch D, Huber-Lang M S, Flierd M A, Ward P A: Immunodesign of experimental sepsis by cecal ligation and puncture. Nature protocols 2009, 4(1):31-36). Specifically, Sepsis was induced by ligating 1 cm length of the cecum from the apex and two punctures with a 25-Gauge needle. Animals in the sham group had only laparotomy without any cecal punctures. Post-surgery treatment included 40 mL/kg Ringer's solution after surgery, and ceftriaxone (25 mg/kg), metronidazole (12.5 mg/kg), and buprenorphine (0.05 mg/kg), every 12 hours administered intraperitoneally (i.p.) for 3 days. Septic animals were randomly divided into four groups to receive a seven-day UPHD186 (50 mg/kg/day, i.p.) or vehicle (20% Cyclodextrin-2% DMSO in PBS, i.p.) treatment, starting from 48 hours or 96 hours post-CLP. To determine treatment efficacy, time-serial blood samples (approx. 10 μL) were collected through animals' saphenous vein on the days before/after the treatment session. All mice were followed for survival and sacrificed at the 3rd day post-treatment or the endpoint day 14 to collect kidneys and blood samples. […]

IL6 = assay: CLP sepsis-associated AKI model: circulating cytokine IL6 (ELISA); type: in vivo, Balb/c mice; conditions: early and delayed treatment regimens
Excerpt: as §1

[3] = system: septic mice (cecal ligation and puncture); assay: CLP sepsis-associated AKI model: sepsis survival to day 14; type: in vivo, Balb/c mice; conditions: 50 mg/kg/day i.p. 7 days
Excerpt: as §1, with “post-CLP.” for “post-CLP. To determine treatment efficacy, time-serial blood samples (approx. 10 μL) were collected through animals' saphenous vein on the days before/after the treatment session. All mice were followed for survival and sacrificed at the 3rd day post-treatment or the endpoint day 14 to collect kidneys and blood samples.”
Graph and statistical analyses were performed using GraphPad Prism 8 (GraphPad Software). […] Tukey's test was used to determine significance of differences among multiple groups and t test between two groups; survival rates were analyzed using log-rank Mantel-Cox test. […]

IGFBP7 = assay: CLP sepsis-associated AKI model: renal IGFBP7 expression, day 14; type: in vivo, Balb/c mice
Excerpt: (§2) Balb/c mice (20-24 weeks old, male and female, Charles River Labs) were used. Mice were subjected to cecal ligation and puncture surgery (CLP) in accordance with methods reported by Rittirsch et al. (Rittirsch D, Huber-Lang M S, Flierd M A, Ward P A: Immunodesign of experimental sepsis by cecal ligation and puncture. Nature protocols 2009, 4(1):31-36). Specifically, Sepsis was induced by ligating 1 cm length of the cecum from the apex and two punctures with a 25-Gauge needle. Animals in the sham group had only laparotomy without any cecal punctures. Post-surgery treatment included 40 mL/kg Ringer's solution after surgery, and ceftriaxone (25 mg/kg), metronidazole (12.5 mg/kg), and buprenorphine (0.05 mg/kg), every 12 hours administered intraperitoneally (i.p.) for 3 days. Septic animals were randomly divided into four groups to receive a seven-day UPHD186 (50 mg/kg/day, i.p.) or vehicle (20% Cyclodextrin-2% DMSO in PBS, i.p.) treatment, starting from 48 hours or 96 hours post-CLP. To determine treatment efficacy, time-serial blood samples (approx. 10 μL) were collected through animals' saphenous vein on the days before/after the treatment session. All mice were followed for survival and sacrificed at the 3rd day post-treatment or the endpoint day 14 to collect kidneys and blood samples.
The left kidney was flushed with 10 mL ice-cold PBS, 10 mL 10% formalin through the left ventricle immediately after euthanasia, and the kidney was collected. For immunofluorescence staining, half of the kidney was fixed in 10% formalin for 2 h on ice, incubated in 30% (vol/vol) sucrose at 4° C. overnight, snap frozen in OCT (Sakura FineTek), and cut into 7-μm sections. […] Semiquantitative renal histology injury scoring was assessed by an investigator blinded to group assignment and the percentage of fibrosis per area was quantified using ImageJ (https://imagej.nih.gov/ij/; National Institutes of Health).
Renal expression/location of the kidney stress marker insulin-like growth factor-binding protein 7 (IGFBP7) was measured at Day-14 kidneys. […]

[4] = system: renal mRNA of inflammation, kidney injury, matrix remodeling, cell cycle, proliferation and fibrosis genes; assay: CLP sepsis-associated AKI model: renal mRNA expression (quantitative PCR); type: in vivo, Balb/c mice
Excerpt: as §2
Total tissue RNA was isolated using TRIzol™ reagent (Life Technologies), DNase kit (Invitrogen), and converted into complementary DNA with High-Capacity cDNA Reverse Transcription Kits (Applied Biosystems). Quantitative polymerase chain reaction was performed on a Mx3000PTM system (Agilent Technologies) using primers (Table 1) and SYBR® Select Master Mix (2×) (Applied Biosystems). The expression of each target gene was assayed in duplicate and presented as fold change normalized by that of the endogenous control gene, gapdh expression.
Kidney samples were examined at mRNA levels for genes controlling inflammation (nfκb, ccl20, traf1, traf2, icam), kidney injury (kim1), and matrix remodeling markers (lox, loxl1). Septic animals had higher levels of gene expression compared to sham controls (FIG. 4). […] (FIG. 3D).
Kidney samples on day 14 (following CLP) were examined for mRNA levels for treatment effects on cell cycle regulation (cdkn1a), proliferation (ki67), and pro-fibrosis genes (plod2, fsp1, col1a1). Septic animals had higher levels of fsp1 and col1a1 expressions compared to sham controls (FIG. 7). Early treatment with UPHD186 further increased fsp1 (fold-increase, 3.3±1.3 vs. corresponding CLP+vehicle controls 2.2±1.1, P<0.05), whereas delayed treatment promoted ki67 and inhibited col1a1 expression (fold-increase, ki67: 1.6±0.7 vs. corresponding controls 1.0±0.5, P<0.01; col1a1, 2.2±0.9 vs. 3.7±2.4, P<0.05) (FIG. 5C). Thus, pro-fibrotic gene expression was increased in the recovery phase and early treatment further aggravated these changes; whereas delayed treatment promoted proliferation and attenuated fibrosis.

[5] = system: renal fibrosis and histology injury; assay: CLP sepsis-associated AKI model: renal histology (Masson's trichrome, hematoxylin & eosin), day 14; type: in vivo, Balb/c mice
Excerpt: as §2
The left kidney was flushed with 10 mL ice-cold PBS, 10 mL 10% formalin through the left ventricle immediately after euthanasia, and the kidney was collected. For immunofluorescence staining, half of the kidney was fixed in 10% formalin for 2 h on ice, incubated in 30% (vol/vol) sucrose at 4° C. overnight, snap frozen in OCT (Sakura FineTek), and cut into 7-μm sections. Sections were treated with heated citrate (Antigen Unmasking Solution, Vector Laboratories), blocked in 10% (vol/vol) normal goat serum (Vector Laboratories) in 0.3M glycine-PBST for 1 h RT, incubated with primary antibodies at 4° C. overnight, and then corresponding secondary antibodies (Jackson ImmunoResearch) in PBS containing 10% of the blocking solution for 1 h RT. Stained sections were mounted in mounting Medium with DAPI (Vectashield H-1000, Vector Laboratories), and stored at −20° C. until observed under confocal microscopy (Fluoview 1000, Olympus). Three washes with PBST were performed between each step. […] Semiquantitative renal histology injury scoring was assessed by an investigator blinded to group assignment and the percentage of fibrosis per area was quantified using ImageJ (https://imagej.nih.gov/ij/; National Institutes of Health). […]

[6] = system: F4/80+ mononuclear cells in the kidneys; assay: CLP sepsis-associated AKI model: kidney monocytes and their phenotype (immunofluorescence), day 3 post-treatment; type: in vivo, Balb/c mice; conditions: for F4/80+ cell numbers in the kidneys: 50 mg/kg/day i.p.
Excerpt: as §2
The left kidney was flushed with 10 mL ice-cold PBS, 10 mL 10% formalin through the left ventricle immediately after euthanasia, and the kidney was collected. For immunofluorescence staining, half of the kidney was fixed in 10% formalin for 2 h on ice, incubated in 30% (vol/vol) sucrose at 4° C. overnight, snap frozen in OCT (Sakura FineTek), and cut into 7-μm sections. Sections were treated with heated citrate (Antigen Unmasking Solution, Vector Laboratories), blocked in 10% (vol/vol) normal goat serum (Vector Laboratories) in 0.3M glycine-PBST for 1 h RT, incubated with primary antibodies at 4° C. overnight, and then corresponding secondary antibodies (Jackson ImmunoResearch) in PBS containing 10% of the blocking solution for 1 h RT. Stained sections were mounted in mounting Medium with DAPI (Vectashield H-1000, Vector Laboratories), and stored at −20° C. until observed under confocal microscopy (Fluoview 1000, Olympus). Three washes with PBST were performed between each step. The primary antibodies were: goat anti-ICAM (R&D Systems), rabbit anti-Col1 (Novus Biologicals), rabbit anti-fibronectin (Abcam), rabbit anti-vimentin (Abcam), rat anti-F4/80 (Abcam), rabbit anti-iNOS (Abcam), and phalloidin (Thermo Fisher Scientific) was used for staining of the brush-boarder. For immunohistochemistry analysis, the infused kidney was fixed in 10% formalin at 4° C. overnight, embedded in paraffin, and cut into 5-μm sections. Hematoxylin & eosin and Masson's trichrome stain were performed. Semiquantitative renal histology injury scoring was assessed by an investigator blinded to group assignment and the percentage of fibrosis per area was quantified using ImageJ (https://imagej.nih.gov/ij/; National Institutes of Health).
Kidney samples collected at day 3 post-treatment were examined for presence numbers of monocytes in the kidney and their phenotypes (monocytes: F4/80^+, M1: F4/80^+iNOS^+, M2: F4/80^+MR^+).

With `COC(=O)CCCSc1ccccc1` [UPHD25, methyl 4-(phenylsulfanyl)butanoate] as the compound, how does the “collagen (CHP staining), fibrosis” value [1] read?
Its value is “reduction of collagen”.

With `O=C(CCCSc1ccccc1)Nc1ccccc1O` [UPHD186, N-(2-hydroxyphenyl)-4-(phenylsulfanyl)butanamide] as the compound, how does the “collagen (CHP staining), fibrosis” value [1] read?
Its value is “reduced”.

What about the “circulating creatinine, treatment effect” value [2] of the same compound?
The value was “neither creatinine (FIG. 5B) nor cytokine IL6 (FIG. 6) were affected”.

And the “circulating cytokine IL6, treatment effect” value (IL6)?
Its value is “neither creatinine (FIG. 5B) nor cytokine IL6 (FIG. 6) were affected”.

And the “survival rate by day 14” value ([3]; delayed treatment (96 h), vehicle 39%, P<0.01)?
The value was 79%.

And the “survival rate by day 14” value ([3]; early treatment (48 h), vehicle 54%, P=0.32)?
The value was 69%.

And the “overall IGFBP7 renal expression, effect” value (IGFBP7; delayed treatment, day 14)?
Its value is “no such effect”.

What about the “secretory pattern of IGFBP7, effect” value (IGFBP7; early and delayed treatment regimens, day 14 (data not shown)) of the same compound?
Its value is “neither treatment regimens changed the secretory pattern of IGFBP7”.

What about the “overall IGFBP7 renal expression” value (IGFBP7; early treatment, day 14, CLP 396.9±109.0) of the same compound?
The value was 674.1±190.5.

What about the “inflammation, kidney injury and matrix remodeling marker mRNA (nfκb, ccl20, traf1, traf2, icam, kim1, lox, loxl1), effect” value ([4]; delayed treatment, day 3 post-treatment, compared to CLP controls) of the same compound?
Its value is “no effect on any marker expressions”.

And the “ki67 renal mRNA” value ([4]; delayed treatment, day 14 after CLP, controls 1.0±0.5)?
Its value is 1.6±0.7 fold-increase.

And the “col1a1 renal mRNA” value ([4]; delayed treatment, day 14 after CLP, controls 3.7±2.4)?
Its value is 2.2±0.9 fold-increase.

And the “loxl1 renal mRNA” value ([4]; early treatment, day 3 post-treatment, CLP 10.5±5.7)?
Its value is 5.0±2.3 fold-increase.

And the “icam1 renal mRNA” value ([4]; early treatment, day 3 post-treatment, CLP 25.3±4.1)?
The value was 9.1±2.3 fold-increase.

What about the “traf2 renal mRNA” value ([4]; early treatment, day 3 post-treatment, CLP 32.5±6.9) of the same compound?
Its value is 12.2±3.0 fold-increase.

What about the “traf1 renal mRNA” value ([4]; early treatment, day 3 post-treatment, CLP 51.5±9.1) of the same compound?
The value was 17.1±3.6 fold-increase.

And the “cdkn1a renal mRNA, effect” value ([4]; early treatment, day 14 (FIG. 5C))?
The value was “increased cdkn1a”.

What about the “fsp1 renal mRNA” value ([4]; early treatment, day 14 after CLP, CLP+vehicle 2.2±1.1) of the same compound?
The value was 3.3±1.3 fold-increase.

What about the histology injury score ([5]; delayed treatment, vehicle 2.1±1.0, P=0.13) of the same compound?
Its histology injury score is 1.4±1.0.

What about the collagen volume fraction ([5]; delayed treatment, vehicle 26.2±7.6, P=0.08) of the same compound?
Its collagen volume fraction is 21.2±4.8%.

And the histology injury score ([5]; early treatment, CLP vehicle 1.7±0.9)?
The histology injury score was 2.6±1.3.

And the collagen volume fraction ([5]; early treatment, CLP vehicle 28.4±4.3)?
The collagen volume fraction was 27.6±4.3%.

What about the “iNOS expression intensities (M1 marker)” value ([6]; delayed treatment (96 h post-CLP), CLP vehicle 3.1±1.4) of the same compound?
Its value is 1.4±0.3.

What about the “F4/80+ cell numbers in the kidneys” value ([6]; delayed treatment (from 96 h post-CLP), CLP vehicle 52.4±32.9) of the same compound?
The value was 40.6±24.7 cells/field.

What about the “MR expression (M2 marker), treatment effect” value ([6]; early and delayed treatment groups) of the same compound?
The value was “no treatment effects were observed”.

What about the “iNOS expression intensities (M1 marker)” value ([6]; early treatment (48 h post-CLP), CLP vehicle 1.2±0.7) of the same compound?
The value was 2.7±0.3.

And the “F4/80+ cell numbers in the kidneys” value ([6]; early treatment (from 48 h post-CLP), CLP vehicle 41.2±26.1)?
The value was 15.7±7.7 cells/field.
